{"source": "ChEMBL document CHEMBL4138229", "about": "“Recent discovery of indoleamine-2,3-dioxygenase 1 inhibitors targeting cancer immunotherapy” (Eur J Med Chem, 2018)", "key": {"[1]": {"molecular_target": "T1, Tryptophan 2,3-dioxygenase (Homo sapiens, UniProt P48775)", "T1 sequence (P48775 whole entry)": "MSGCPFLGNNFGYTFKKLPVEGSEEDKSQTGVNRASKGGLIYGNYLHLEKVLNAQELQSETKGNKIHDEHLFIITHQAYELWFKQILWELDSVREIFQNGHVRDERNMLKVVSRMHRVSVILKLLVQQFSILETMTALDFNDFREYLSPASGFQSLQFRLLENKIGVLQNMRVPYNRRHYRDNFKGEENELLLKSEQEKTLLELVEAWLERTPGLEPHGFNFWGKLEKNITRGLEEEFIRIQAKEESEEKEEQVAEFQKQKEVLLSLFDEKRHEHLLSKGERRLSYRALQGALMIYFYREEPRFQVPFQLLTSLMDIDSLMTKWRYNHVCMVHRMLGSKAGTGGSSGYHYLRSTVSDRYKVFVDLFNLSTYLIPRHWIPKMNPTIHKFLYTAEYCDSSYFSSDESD", "test": "Inhibition of human TDO using Trp as substrate after 90 mins by Bridge-IT tryptophan fluorescence assay"}, "[2]": {"molecular_target": "T2, Indoleamine 2,3-dioxygenase 2 (Homo sapiens, UniProt Q6ZQW0)", "T2 sequence (Q6ZQW0 whole entry)": "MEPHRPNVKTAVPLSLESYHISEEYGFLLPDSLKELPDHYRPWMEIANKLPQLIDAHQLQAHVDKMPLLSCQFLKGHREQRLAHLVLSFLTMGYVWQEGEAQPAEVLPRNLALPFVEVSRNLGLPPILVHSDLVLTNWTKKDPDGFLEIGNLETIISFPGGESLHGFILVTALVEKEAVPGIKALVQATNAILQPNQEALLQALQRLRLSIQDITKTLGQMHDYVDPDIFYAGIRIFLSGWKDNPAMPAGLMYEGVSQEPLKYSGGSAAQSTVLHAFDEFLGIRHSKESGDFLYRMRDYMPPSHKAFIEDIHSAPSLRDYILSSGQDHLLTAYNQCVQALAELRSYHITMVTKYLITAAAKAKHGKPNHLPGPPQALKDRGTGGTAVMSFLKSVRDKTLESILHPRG", "test": "Inhibition of human IDO2 using Trp as substrate after 90 mins by Bridge-IT tryptophan fluorescence assay"}, "[3]": {"molecular_target": "T3, Indoleamine 2,3-dioxygenase 1 (Homo sapiens, UniProt P14902)", "T3 sequence (P14902 whole entry)": "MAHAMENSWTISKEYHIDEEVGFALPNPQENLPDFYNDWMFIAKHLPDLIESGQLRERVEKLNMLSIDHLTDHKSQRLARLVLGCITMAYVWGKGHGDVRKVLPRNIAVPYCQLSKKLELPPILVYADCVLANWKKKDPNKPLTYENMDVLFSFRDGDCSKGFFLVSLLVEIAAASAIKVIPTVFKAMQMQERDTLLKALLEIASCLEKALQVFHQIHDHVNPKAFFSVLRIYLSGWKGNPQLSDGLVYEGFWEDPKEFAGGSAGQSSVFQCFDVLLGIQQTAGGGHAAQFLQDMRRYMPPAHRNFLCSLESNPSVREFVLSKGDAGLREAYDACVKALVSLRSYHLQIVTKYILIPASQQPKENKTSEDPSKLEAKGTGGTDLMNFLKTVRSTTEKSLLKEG", "test": "Inhibition of human IDO1 assessed as reduction in kynurenine production"}, "[4]": {"molecular_target": "T3, Indoleamine 2,3-dioxygenase 1", "test": "Inhibition of IDO1 in human HeLa assessed as reduction in kynurenine production", "type": "cell-based"}, "[5]": {"molecular_target": "T3, Indoleamine 2,3-dioxygenase 1", "test": "Inhibition of IDO1 (unknown origin) after 60 mins"}, "[6]": {"molecular_target": "T3, Indoleamine 2,3-dioxygenase 1", "test": "Inhibition of IDO1 in human HeLa cells assessed as reduction in kynurenine production", "type": "cell-based"}, "[7]": {"molecular_target": "T3, Indoleamine 2,3-dioxygenase 1", "test": "Inhibition of IDO1 (unknown origin) assessed as reduction in kynurenine production by spectraphotometric assay"}, "[8]": {"molecular_target": "T1, Tryptophan 2,3-dioxygenase", "test": "Inhibition of TDO (unknown origin)"}, "[9]": {"molecular_target": "T1, Tryptophan 2,3-dioxygenase", "test": "Inhibition of human TDO expressed in T-REx-293 cells", "type": "cell-based"}, "[10]": {"molecular_target": "Indoleamine 2,3-dioxygenase 1 (Mus musculus, UniProt P28776)", "sequence (P28776 whole entry)": "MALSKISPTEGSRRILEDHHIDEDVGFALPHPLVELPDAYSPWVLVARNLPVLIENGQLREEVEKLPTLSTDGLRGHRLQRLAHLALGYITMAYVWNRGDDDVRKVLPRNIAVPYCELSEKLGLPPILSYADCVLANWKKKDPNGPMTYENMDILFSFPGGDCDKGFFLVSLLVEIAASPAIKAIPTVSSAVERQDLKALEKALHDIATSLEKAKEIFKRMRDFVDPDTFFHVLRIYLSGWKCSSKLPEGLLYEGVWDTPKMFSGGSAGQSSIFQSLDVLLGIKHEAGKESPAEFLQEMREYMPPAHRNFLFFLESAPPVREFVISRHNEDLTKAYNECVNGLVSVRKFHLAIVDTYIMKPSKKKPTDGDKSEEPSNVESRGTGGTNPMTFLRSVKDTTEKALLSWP", "test": "Inhibition of IDO1 in mouse P815 Clone 12 cells assessed as reduction in kynurenine production incubated for 16 to 18 hrs", "type": "cell-based"}}, "data": [{"smiles": "Cc1ccc(-c2csc3nnc(SCC(=O)Nc4ccc5c(c4)OCO5)n23)cc1", "values": [{"measurement": "IC50", "setting": "[1]", "result": "> 62500", "unit": "nM"}, {"measurement": "IC50", "setting": "[2]", "result": "> 250000", "unit": "nM"}]}, {"smiles": "NS(=O)(=O)NC1(CCNc2nonc2/C(=N/O)Nc2ccc(F)c(Br)c2)CC1", "values": [{"measurement": "IC50", "setting": "[3]", "result": 18, "unit": "nM"}, {"measurement": "IC50", "setting": "[4]", "result": 3, "unit": "nM"}]}, {"smiles": "CS(=O)(=NC#N)NCCNc1nonc1/C(=N/O)Nc1ccc(F)c(Br)c1", "note": "(stereo unspecified)", "values": [{"measurement": "IC50", "setting": "[5]", "result": 11, "unit": "nM"}, {"measurement": "IC50", "setting": "[6]", "result": 1.8, "unit": "nM"}]}, {"smiles": "O/N=C(/CCC1CCCCC1)Nc1cccc(Cl)c1", "values": [{"measurement": "IC50", "setting": "[7]", "result": "< 1000", "unit": "nM"}]}, {"smiles": "O[C@H](C[C@H]1c2c(F)cccc2-c2cncn21)[C@H]1CC[C@H](O)CC1", "note": "[NAVOXIMOD]", "values": [{"measurement": "IC50", "setting": "[8]", "result": 140, "unit": "nM"}, {"measurement": "IC50", "setting": "[9]", "result": 1500, "unit": "nM"}]}, {"smiles": "O=C1CC(c2c[nH]c3ccc(F)cc23)C(=O)N1", "note": "(stereo unspecified) [PF-06840003]", "values": [{"measurement": "IC50", "setting": "[8]", "result": "> 50000", "unit": "nM"}, {"measurement": "IC50", "setting": "[10]", "result": 94, "unit": "nM"}]}]}
